According to patent US20060240127A1, “Use of agomelatine in obtaining medicaments intended for the treatment of bipolar disorders” (priority 2005, published 2006):

Tested on: patients suffering from bipolar disorders of type I
Assay: Clinical study of agomelatine in type I bipolar patients treated with lithium or valproate
Format: in vivo
Method: This study was carried out in 21 patients suffering from bipolar disorders of type I, treated for at least 6 months with lithium (n =14) or valproate (n=7). Treatment for 6 weeks with agomelatine (25 mg/day) was carried out. Of these patients, 19 continued treatment beyond the 6 weeks of acute treatment, and 11 of those continued treatment up to 1 year.

## COc1ccc2cccc(CCNC(C)=O)c2c1 [agomelatine, N-[2-(7-methoxy-1-naphthyl)ethyl]acetamide]
11 patients who continued treatment up to 1 year, agomelatine 25 mg/day with lithium or valproate
  patients in remission at the end of the one year treatment period: 10 out of the 11
19 patients who continued beyond 6 weeks, 11 of them up to 1 year, level compatible with a mood stabiliser
  manic or hypomanic episodes observed after the 6 weeks of treatment: three
21 type I bipolar patients on lithium or valproate, agomelatine 25 mg/day, 6 weeks treatment
  patients responded positively to the treatment: 81%
21 type I bipolar patients on lithium or valproate, agomelatine 25 mg/day, end of one week
  patients responded positively by the end of one week of treatment: about 50%
